Assays:
GLP-1R = GLP-1R (Homo sapiens (Human), UniProt P43220); assay: GLP-1R activation: cAMP increase in CHO cells stably expressing GLP-1R; assay type: cell-based; conditions: cAMP increase, 10 point dose response, 30 minutes incubation at 37° C., read-out: EC50
Outline: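 CHO cells stably expressing GLP-1R were incubated 1 h at 37 °C in medium with 1% BSA, then exposed to compound in a 10-point dose response for 30 min at 37 °C. cAMP rise was detected by HTRF (Gs Dynamic kit). EC50 came from a sigmoidal fit of response against log agonist concentration.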

[1] = Microsomal stability (liver microsomal assay, mixed cofactors); predicted hepatic clearance; assay type: in vitro ADME; conditions: liver microsomes 1.0 mg protein/mL (+UDPGA +NADPH), 1 μM analyte, 37° C.; scaled with human liver weight and hepatic blood flow 1.3 L/hr/kg
Outline: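 Compound at 1 μM with human or rat pooled liver microsomes, alamethicin-treated, pH 7.4 phosphate, NADPH-regenerating plus UDPGA cofactors, 37° C, sampled 0–70 min. Parent/internal standard ratio by RapidFire QToF MS; half-life from initial log-linear decay, scaled to intrinsic and predicted hepatic clearance and hepatic extraction.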

Chain of GLP-1R (P43220 24-463): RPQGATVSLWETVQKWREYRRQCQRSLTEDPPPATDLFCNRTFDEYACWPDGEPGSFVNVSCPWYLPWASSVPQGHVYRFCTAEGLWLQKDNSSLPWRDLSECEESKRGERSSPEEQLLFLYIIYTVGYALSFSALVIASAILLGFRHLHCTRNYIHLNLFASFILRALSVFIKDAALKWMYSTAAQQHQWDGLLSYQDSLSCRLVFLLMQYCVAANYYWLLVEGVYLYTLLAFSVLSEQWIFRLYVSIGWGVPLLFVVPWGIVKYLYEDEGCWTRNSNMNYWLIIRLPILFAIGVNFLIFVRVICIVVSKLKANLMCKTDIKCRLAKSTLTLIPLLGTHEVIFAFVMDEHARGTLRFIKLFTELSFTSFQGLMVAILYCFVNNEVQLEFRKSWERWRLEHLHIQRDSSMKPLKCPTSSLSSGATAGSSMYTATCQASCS

Structure (SMILES) | EC50 (GLP-1R) [nM] | Predicted Hepatic Clearance (Pred. Cl.) [1] [mL/min/kg]
COCCn1c(Cc2ccc(-c3cccc4c3OC(C)(c3ccc(Cl)cc3F)O4)n(C)c2=O)nc2ccc(C(=O)O)cc21 (stereo not drawn) [Example 87, 2-((6-(2-(4-chloro-2-fluorophenyl)-2-methylbenzo[d][1, 3]dioxol-4-yl)-1-methyl-2-oxo-1,2-dihydropyridin-3-yl)methyl)-1-(2-methoxyethyl)-1H-benzo[d]imidazole-6-carboxylic acid] | 1150 | 9
COCCn1c(Cc2c(F)cc(-c3cccc4c3OC(C)(c3ccc(C#N)cc3F)O4)c(F)c2F)nc2ccc(C(=O)O)cc21 (stereo not drawn) [Example 88, 2-(4-(2-(4-cyano-2-fluorophenyl)-2-methylbenzo[d][1, 3]dioxol-4-yl)-2,3,6-trifluorobenzyl)-1-(2-methoxyethyl)-1H-benzo[d]imidazole-6-carboxylic acid] | 12 | 8
COCCn1c(Cc2c(F)cc(-c3cccc4c3OC(C)(c3ccc(C#N)cc3F)O4)cc2F)nc2ccc(C(=O)O)cc21 (stereo not drawn) [Example 89, 2-(4-(2-(4-cyano-2-fluorophenyl)-2-methylbenzo[d][1, 3]dioxol-4-yl)-2,6-difluorobenzyl)-1-(2-methoxyethyl)-1H-benzo[d]imidazole-6-carboxylic acid] | 15 | 6.17
CC1(c2ccc(C#N)cc2F)Oc2cccc(-c3cc(F)c(Cc4nc5ccc(C(=O)O)cc5n4C[C@@H]4CCO4)c(F)c3F)c2O1 (stereo partly drawn) [Example 90, 2-(4-(2-(4-cyano-2-fluorophenyl)-2-methylbenzo[d][1, 3]dioxol-4-yl)-2,3,6-trifluorobenzyl)-1-(((S)-oxetan-2-yl)methyl)-1H-benzo[d]imidazole-6-carboxylic acid] | 0.23 | 4.67
CC1(c2ccc(C#N)cc2F)Oc2cccc(-c3cc(F)c(Cc4nc5ccc(C(=O)O)cc5n4C[C@@H]4CCO4)c(F)c3)c2O1 (stereo partly drawn) [Example 91, 2-(4-(2-(4-cyano-2-fluorophenyl)-2-methylbenzo[d][1, 3]dioxol-4-yl)-2,6-difluorobenzyl)-1-(((S)-oxetan-2-yl)methyl)-1H-benzo[d]imidazole-6-carboxylic acid] | 0.69 | 3.83
COCCn1c(Cc2c(F)cc(-c3c(F)ccc4c3OC(C)(c3ccc(Cl)cn3)O4)cc2F)nc2ccc(C(=O)O)cc21 (stereo not drawn) [Example 100, 2-(4-(2-(5-chloropyridin-2-yl)-5-fluoro-2-methylbenzo[d][1, 3]dioxol-4-yl)-2,6-difluorobenzyl)-1-(2-methoxyethyl)-1H-benzo[d]imidazole-6-carboxylic acid] | 14 | 10.3
COCCn1c(Cc2cc(F)c(-c3c(F)ccc4c3OC(C)(c3ccc(Cl)cn3)O4)cc2F)nc2ccc(C(=O)O)cc21 (stereo not drawn) [Example 101, 2-(4-(2-(5-chloropyridin-2-yl)-5-fluoro-2-methylbenzo[d][1, 3]dioxol-4-yl)-2,5-difluorobenzyl)-1-(2-methoxyethyl)-1H-benzo[d]imidazole-6-carboxylic acid] | 160 | 11.8
COCCn1c(Cc2c(F)cc(-c3cccc4c3O[C@@](C)(c3ccc(Cl)cc3F)O4)cc2F)nc2ccc(C(=O)O)cc21 [Example 102, 2-(4-(2-(4-chloro-2-fluorophenyl)-2-methylbenzo[d][1, 3]dioxol-4-yl)-2,6-difluorobenzyl)-1-(2-methoxyethyl)-1H-benzo[d]imidazole-6-carboxylic acid] | 65 | 3.17
COCCn1c(Cc2c(F)cc(-c3cccc4c3O[C@](C)(c3ccc(Cl)cc3F)O4)cc2F)nc2ccc(C(=O)O)cc21 [Example 103, 2-(4-(2-(4-chloro-2-fluorophenyl)-2-methylbenzo[d][1, 3]dioxol-4-yl)-2,6-difluorobenzyl)-1-(2-methoxyethyl)-1H-benzo[d]imidazole-6-carboxylic acid] | 8.2 | 4.17
CC1(c2ccc(Cl)cc2F)Oc2cccc(-c3ccc(Cc4nc5ccc(C(=O)O)cc5n4Cc4ccon4)c(F)c3)c2O1 (stereo not drawn) [Example 107, 2-(4-(2-(4-chloro-2-fluorophenyl)-2-methylbenzo[d][1, 3]dioxol-4-yl)-2-fluorobenzyl)-1-(isoxazol-3-ylmethyl)-3a,7a-dihydro-1H-benzo[d]imidazole-6-carboxylic acid] | 1.9 | 4.33
CC(=O)N1CC[C@@H]1Cn1c(Cc2ccc(-c3cccc4c3OC(C)(c3ccc(Cl)cc3F)O4)cc2F)nc2ccc(C(=O)O)cc21 (stereo partly drawn) [Example 108, 3-[[(2R)-1-acetylazetidin-2-yl]methyl]-2-[[4-[2-(4-chloro-2-fluoro-phenyl)-2-methyl-1,3-benzodioxol-4-yl]-2-fluoro-phenyl]methyl] benzimidazole-5-carboxylic acid] | 4.3 | 2
CC1(c2ccc(Cl)cc2F)Oc2cccc(-c3ccc(Cc4nc5ccc(C(=O)O)cc5n4CC4(n5ccnn5)CC4)c(F)c3)c2O1 (stereo not drawn) [Example 109, 1-((1-(1H-1,2,3-triazol-1-yl)cyclopropyl)methyl)-2-(4-(2-(4-chloro-2-fluorophenyl)-2-methylbenzo[d][1, 3]dioxol-4-yl)-2-fluorobenzyl)-1H-benzo[d]imidazole-6-carboxylic acid] | 9.1 | 2.5

From patent publication US20250099431A1, “GLP-1R MODULATING COMPOUNDS” (priority 2020, published 2025)
